In patent US20220117266A1, “NICKEL CHELATION THERAPY” (priority 2019, published 2022):
Where two headings read alike, the source gives them in different places.

What was measured:
Aβ40 peptide = Aβ40 peptide (Homo sapiens, UniProt P05067); test: Thioflavin T (ThT)-based Aβ40 aggregation assay; format: biochemical; set-up: purchased rPeptides, Watkinsville, Ga., USA kit #A-1180-1; host or cells: E. coli; conditions: for remaining activity at 100 µM: DMG 100 μM; for remaining activity at 100 µM / remaining activity at 500 µM / remaining activity at 1000 µM: read-out: Relative Aβ40 aggregation rate (% control); for remaining activity at 500 µM: DMG 500 μM; for remaining activity at 1000 µM: DMG 1000 μM
Procedure: Amyloid Beta aggregation. […] This kit contained human recombinant Aβ40 peptide (>97% pure, as determined by manufacturer's HPLC) with the following sequence […] (SEQ ID NO:1), as provided by the manufacturer. […] The aggregation of Aβ40, was shown by the increase in fluorescence (lex=440 nm/lem=485 nm) over time, was followed for 60 min or 120 min, with reading every three or five min, using a Synergy MX reader (Biotek, Winooski, Vt.). A ThT-only background control (no Aβ40 peptide) was included in triplicate in all experiments and subtracted from all readings. The aggregation rate, defined as the increase in fluorescence per min (RFU/min), was calculated by using the formula [A(440,485) at T40min)−A(440,485) at T20min]/20.

[1] = test system: C. concisus (strain 13826, ATCC BAA-1457); test: Growth inhibition, solid plates (CFU); format: cell-based, Campylobacter concisus; conditions: BA plates, 24 hours
[2] = test system: MDR K. pneumoniae (ATCC BAA2472); test: DMG growth inhibition in liquid culture (CFU/mL); format: cell-based, Klebsiella pneumoniae
Procedure: Growth conditions. All strains were routinely grown on LB agar plates or in LB broth. For DMG-growth inhibition study, S. Typhimurium strains ATCC 14028 and ATCC 700408 were grown in M9 minimal medium (M9 minimal salts, 0.4% glucose, 2 mM MgSO4, 0.1 mM CaCl2), and 1 μg/mL thiamine, pH 7.2). K. pneumoniae was grown in “W-U” medium, modified from Bender et al. 1977 129:1001-1009, containing 60 mM K2HPO4, 33 mM KH2PO4, 0.4 mM MgSO4, 0.4% Glucose, and 5 mM urea (instead of KNO3), pH 7.4. Briefly, overnight cultures of S. Typhimurium and K. pneumoniae were harvested, spun at 14,000 rpm for five minutes, washed once with either M9 (S. Typhimurium) or W-U (K. pneumoniae) and resuspended in either M9 (S. Typhimurium) or W-U (K. pneumoniae). […] Cells were incubated for 24 hours at 37° C. with shaking at 250 rpm, then serially diluted in PBS and 5 μL of each dilution was spotted in triplicate on LB plate. Colony forming units (CFU) were counted after 16 hours at 37° C. Each growth experiment was done at least three times.

[3] = experiment B, no supplemental metal
[4] = experiment C, no supplemental metal

Chain of Aβ40 peptide (P05067 672-711): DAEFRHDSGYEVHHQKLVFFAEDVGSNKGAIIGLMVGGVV

## CC(=NO)C(C)=NO [DMG, dimethylglyoxime]
Aβ40 peptide; 500 mM or 1000 mM DMG (so in the source), no supplemented metal
  inhibition of Aβ40 aggregation: partial or full inhibition
Aβ40 peptide; experiment A, Cu 10 μM
  remaining activity at 100 µM: 54 ± 12%
Aβ40 peptide; experiment A, Ni 10 μM
  remaining activity at 100 µM: 58 ± 11%
Aβ40 peptide; experiment A, Zn 10 μM
  remaining activity at 100 µM: 457 ± 39%
Aβ40 peptide; experiment A, no supplemental metal
  remaining activity at 100 µM: 33 ± 2%
Aβ40 peptide; experiment B, Ni 100 μM
  remaining activity at 100 µM: 410 ± 91%
  remaining activity at 500 µM: < 1%
  remaining activity at 1000 µM: < 1%
Aβ40 peptide; [3]
  remaining activity at 100 µM: 15 ± 14%
  remaining activity at 500 µM: < 1%
  remaining activity at 1000 µM: < 1%
Aβ40 peptide; experiment B, Zn 100 μM
  remaining activity at 500 µM: 833 ± 156%
  remaining activity at 1000 µM: 328 ± 63%
Aβ40 peptide; experiment C, Cu 100 μM
  remaining activity at 100 µM: 66 ± 15%
  remaining activity at 500 µM: 49 ± 8%
  remaining activity at 1000 µM: 40 ± 3%
Aβ40 peptide; [4]
  remaining activity at 100 µM: 48 ± 8%
  remaining activity at 500 µM: 15 ± 5%
  remaining activity at 1000 µM: 21 ± 10%
Aβ40 peptide; increasing amounts of DMG in presence of 100 mM Cu^2+ or Zn^2+ (so in the source)
  inhibition of Aβ40 aggregation: partial inhibition
Aβ40 peptide; increasing amounts of DMG in presence of 100 mM Ni^2+ (so in the source)
  inhibition of Aβ40 aggregation: Complete inhibition
Aβ40 peptide; pH 6.5, 7.5 or 8.5, 25 mM Aβ40, CuSO4 25 mM, ZnSO4 10 mM or DMG 100 mM (so in the source)
  Aβ40 peptide aggregation under all pHs tested: negligible
[1]; DMG 2 mM
  effect on growth (CFUs, colony size): bacteriostatic
[1]; DMG 4 mM, no CFU detected (detection limit: 200 CFUs)
  effect on growth (CFUs): bactericidal
[2]; DMG at 2.5 mM, 5 mM, or 7.5 mM
  effect on bacterial growth: no measurable effect
[2]; Klebsiella pneumoniae, ATCCBAA2472, 24 h
  inhibition at 10000 µM: > 100%
